Usually AC50 stands for the concentration giving half of the maximal activity seen.

The target of one experiment is T1, Androgen receptor (Rattus norvegicus, UniProt P15207).
T1 sequence (P15207 whole entry): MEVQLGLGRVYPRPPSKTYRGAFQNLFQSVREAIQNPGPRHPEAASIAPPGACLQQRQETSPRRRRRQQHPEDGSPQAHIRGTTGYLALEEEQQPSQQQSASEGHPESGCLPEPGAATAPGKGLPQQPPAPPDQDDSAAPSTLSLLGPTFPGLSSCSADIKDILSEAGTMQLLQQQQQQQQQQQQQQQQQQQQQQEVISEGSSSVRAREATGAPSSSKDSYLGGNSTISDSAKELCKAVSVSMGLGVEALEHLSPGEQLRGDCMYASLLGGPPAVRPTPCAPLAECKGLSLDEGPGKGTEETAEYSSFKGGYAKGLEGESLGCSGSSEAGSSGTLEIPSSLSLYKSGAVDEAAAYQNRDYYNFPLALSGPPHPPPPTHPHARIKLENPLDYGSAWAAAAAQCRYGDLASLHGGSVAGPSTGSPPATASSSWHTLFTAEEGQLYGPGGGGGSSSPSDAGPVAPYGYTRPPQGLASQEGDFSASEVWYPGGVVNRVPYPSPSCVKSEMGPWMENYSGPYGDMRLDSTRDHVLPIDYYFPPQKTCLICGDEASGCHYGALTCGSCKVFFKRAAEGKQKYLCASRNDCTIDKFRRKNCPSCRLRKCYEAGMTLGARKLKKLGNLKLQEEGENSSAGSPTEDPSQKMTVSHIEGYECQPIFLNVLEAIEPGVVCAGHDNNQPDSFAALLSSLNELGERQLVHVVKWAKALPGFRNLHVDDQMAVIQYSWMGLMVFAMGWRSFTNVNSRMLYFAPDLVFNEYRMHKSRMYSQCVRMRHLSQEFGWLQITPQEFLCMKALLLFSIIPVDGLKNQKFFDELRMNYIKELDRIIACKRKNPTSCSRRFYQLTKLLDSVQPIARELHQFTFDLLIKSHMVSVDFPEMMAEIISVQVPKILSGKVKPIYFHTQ
Type of experiment: functional.

The next experiment deals with D(1A) dopamine receptor (Homo sapiens, UniProt P21728).
D(1A) dopamine receptor, sequence (P21728 whole entry): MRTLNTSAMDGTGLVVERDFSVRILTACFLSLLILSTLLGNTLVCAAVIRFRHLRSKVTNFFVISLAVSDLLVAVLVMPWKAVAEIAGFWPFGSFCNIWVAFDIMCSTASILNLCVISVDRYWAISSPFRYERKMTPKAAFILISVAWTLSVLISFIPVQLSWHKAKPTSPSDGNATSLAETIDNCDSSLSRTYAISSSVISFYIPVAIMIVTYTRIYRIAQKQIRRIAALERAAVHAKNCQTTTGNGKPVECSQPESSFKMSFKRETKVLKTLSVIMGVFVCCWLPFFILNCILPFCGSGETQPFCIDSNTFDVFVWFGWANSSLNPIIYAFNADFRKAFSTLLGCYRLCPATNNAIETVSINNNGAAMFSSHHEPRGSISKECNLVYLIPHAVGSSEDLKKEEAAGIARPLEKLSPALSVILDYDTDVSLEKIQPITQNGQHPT
The target in experiment [1] is 5-hydroxytryptamine receptor 2A (Homo sapiens, UniProt P28223).
5-hydroxytryptamine receptor 2A, sequence (P28223 whole entry): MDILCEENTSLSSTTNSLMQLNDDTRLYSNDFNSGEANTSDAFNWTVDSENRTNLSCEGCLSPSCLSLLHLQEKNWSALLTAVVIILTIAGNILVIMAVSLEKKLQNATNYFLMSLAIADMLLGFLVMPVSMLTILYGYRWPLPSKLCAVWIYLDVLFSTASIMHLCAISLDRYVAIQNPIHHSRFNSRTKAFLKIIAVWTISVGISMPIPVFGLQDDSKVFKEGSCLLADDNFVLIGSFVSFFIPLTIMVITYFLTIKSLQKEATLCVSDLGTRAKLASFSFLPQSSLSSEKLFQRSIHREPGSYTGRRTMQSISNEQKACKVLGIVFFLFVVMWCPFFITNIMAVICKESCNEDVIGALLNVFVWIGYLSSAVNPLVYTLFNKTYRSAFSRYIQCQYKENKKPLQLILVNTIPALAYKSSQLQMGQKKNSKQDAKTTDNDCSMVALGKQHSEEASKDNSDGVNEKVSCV
Experiment [2] concerns the target 5-hydroxytryptamine receptor 6 (Homo sapiens, UniProt P50406).
A further experiment addresses Cannabinoid receptor 1 (Homo sapiens, UniProt P21554). It is filed as functional.
The target of experiment [3] is T2, Corticotropin-releasing factor receptor 2 (Homo sapiens, UniProt Q13324).
T2 sequence (Q13324 whole entry): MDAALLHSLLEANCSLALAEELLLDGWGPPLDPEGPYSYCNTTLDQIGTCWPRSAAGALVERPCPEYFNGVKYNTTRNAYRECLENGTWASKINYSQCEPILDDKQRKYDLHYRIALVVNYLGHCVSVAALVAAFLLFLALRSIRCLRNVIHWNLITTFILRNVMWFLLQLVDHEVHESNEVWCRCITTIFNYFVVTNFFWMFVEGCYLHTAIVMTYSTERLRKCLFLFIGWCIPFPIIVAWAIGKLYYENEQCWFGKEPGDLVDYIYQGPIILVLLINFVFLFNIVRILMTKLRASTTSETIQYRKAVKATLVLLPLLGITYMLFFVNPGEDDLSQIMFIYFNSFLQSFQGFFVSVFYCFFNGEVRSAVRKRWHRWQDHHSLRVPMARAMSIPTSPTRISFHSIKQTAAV

In another experiment the target is Glucagon receptor (Homo sapiens, UniProt P47871).
Glucagon receptor, sequence (P47871 whole entry): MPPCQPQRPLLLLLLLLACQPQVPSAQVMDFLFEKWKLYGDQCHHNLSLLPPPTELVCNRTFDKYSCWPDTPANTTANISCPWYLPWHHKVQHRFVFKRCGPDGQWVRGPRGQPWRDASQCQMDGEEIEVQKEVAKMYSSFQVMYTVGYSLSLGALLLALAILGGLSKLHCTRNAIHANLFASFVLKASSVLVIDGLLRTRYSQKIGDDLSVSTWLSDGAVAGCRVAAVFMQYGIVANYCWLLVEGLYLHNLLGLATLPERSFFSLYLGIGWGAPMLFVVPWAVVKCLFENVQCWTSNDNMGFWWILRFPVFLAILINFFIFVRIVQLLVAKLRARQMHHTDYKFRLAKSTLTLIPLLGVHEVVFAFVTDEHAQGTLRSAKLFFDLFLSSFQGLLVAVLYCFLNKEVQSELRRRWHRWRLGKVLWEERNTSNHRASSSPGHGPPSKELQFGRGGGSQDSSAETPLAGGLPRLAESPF
The target of experiment [4] is Neurotensin receptor type 1 (Homo sapiens, UniProt P30989).
Neurotensin receptor type 1, sequence (P30989 whole entry): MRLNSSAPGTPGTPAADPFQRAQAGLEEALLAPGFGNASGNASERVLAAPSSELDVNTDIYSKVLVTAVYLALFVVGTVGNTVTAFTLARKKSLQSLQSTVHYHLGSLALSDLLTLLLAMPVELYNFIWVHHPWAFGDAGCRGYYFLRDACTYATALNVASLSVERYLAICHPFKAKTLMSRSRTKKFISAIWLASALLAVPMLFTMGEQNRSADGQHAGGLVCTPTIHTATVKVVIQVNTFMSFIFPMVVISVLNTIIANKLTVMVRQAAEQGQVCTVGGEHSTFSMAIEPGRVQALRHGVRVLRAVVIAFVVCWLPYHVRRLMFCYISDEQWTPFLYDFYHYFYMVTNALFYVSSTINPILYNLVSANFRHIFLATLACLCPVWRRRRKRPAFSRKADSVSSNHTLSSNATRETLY
The target in experiment [5] is T3, Gastric inhibitory polypeptide receptor (Homo sapiens, UniProt P48546).
T3 sequence (P48546 whole entry): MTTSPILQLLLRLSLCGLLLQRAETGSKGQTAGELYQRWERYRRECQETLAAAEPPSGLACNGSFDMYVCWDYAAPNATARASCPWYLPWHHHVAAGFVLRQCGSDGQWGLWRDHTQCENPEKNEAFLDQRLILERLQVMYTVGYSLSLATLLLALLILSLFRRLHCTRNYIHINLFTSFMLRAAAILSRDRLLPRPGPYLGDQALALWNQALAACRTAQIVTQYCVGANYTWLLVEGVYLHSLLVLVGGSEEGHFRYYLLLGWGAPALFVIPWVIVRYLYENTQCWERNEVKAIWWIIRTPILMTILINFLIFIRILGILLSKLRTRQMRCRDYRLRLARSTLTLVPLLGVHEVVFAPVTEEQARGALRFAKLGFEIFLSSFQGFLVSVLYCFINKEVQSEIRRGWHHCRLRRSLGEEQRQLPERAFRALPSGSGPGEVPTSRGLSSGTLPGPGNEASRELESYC

The target of experiment [6] is T4, Corticotropin-releasing factor receptor 1 (Homo sapiens, UniProt P34998).
T4 sequence (P34998 whole entry): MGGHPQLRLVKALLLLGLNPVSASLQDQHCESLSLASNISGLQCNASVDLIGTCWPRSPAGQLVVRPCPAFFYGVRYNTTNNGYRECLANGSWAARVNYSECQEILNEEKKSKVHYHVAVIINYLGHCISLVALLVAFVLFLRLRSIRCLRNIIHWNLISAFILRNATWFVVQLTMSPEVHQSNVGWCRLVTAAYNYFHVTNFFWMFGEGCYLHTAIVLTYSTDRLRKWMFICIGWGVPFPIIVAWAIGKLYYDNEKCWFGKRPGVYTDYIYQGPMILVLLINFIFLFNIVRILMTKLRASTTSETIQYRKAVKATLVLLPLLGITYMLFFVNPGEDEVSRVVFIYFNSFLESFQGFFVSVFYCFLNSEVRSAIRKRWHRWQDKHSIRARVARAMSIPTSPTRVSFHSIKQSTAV

In experiment [7] the target is T5, Type-2 angiotensin II receptor (Homo sapiens, UniProt P50052).
T5 sequence (P50052 whole entry): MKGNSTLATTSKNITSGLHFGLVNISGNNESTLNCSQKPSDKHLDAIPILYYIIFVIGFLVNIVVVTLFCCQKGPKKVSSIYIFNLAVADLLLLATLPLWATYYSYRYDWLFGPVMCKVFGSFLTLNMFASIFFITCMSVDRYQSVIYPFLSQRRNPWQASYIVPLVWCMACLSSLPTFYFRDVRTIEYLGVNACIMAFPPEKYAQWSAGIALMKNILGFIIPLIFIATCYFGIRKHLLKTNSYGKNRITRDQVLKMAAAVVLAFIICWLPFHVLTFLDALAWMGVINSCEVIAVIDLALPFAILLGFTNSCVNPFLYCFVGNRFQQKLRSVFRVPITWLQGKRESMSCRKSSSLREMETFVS
Type of experiment: functional.

Experiment [8] deals with Sodium channel protein type 5 subunit alpha (Homo sapiens, UniProt Q14524). It is filed as functional, cell-based.
Sodium channel protein type 5 subunit alpha, sequence (Q14524 whole entry): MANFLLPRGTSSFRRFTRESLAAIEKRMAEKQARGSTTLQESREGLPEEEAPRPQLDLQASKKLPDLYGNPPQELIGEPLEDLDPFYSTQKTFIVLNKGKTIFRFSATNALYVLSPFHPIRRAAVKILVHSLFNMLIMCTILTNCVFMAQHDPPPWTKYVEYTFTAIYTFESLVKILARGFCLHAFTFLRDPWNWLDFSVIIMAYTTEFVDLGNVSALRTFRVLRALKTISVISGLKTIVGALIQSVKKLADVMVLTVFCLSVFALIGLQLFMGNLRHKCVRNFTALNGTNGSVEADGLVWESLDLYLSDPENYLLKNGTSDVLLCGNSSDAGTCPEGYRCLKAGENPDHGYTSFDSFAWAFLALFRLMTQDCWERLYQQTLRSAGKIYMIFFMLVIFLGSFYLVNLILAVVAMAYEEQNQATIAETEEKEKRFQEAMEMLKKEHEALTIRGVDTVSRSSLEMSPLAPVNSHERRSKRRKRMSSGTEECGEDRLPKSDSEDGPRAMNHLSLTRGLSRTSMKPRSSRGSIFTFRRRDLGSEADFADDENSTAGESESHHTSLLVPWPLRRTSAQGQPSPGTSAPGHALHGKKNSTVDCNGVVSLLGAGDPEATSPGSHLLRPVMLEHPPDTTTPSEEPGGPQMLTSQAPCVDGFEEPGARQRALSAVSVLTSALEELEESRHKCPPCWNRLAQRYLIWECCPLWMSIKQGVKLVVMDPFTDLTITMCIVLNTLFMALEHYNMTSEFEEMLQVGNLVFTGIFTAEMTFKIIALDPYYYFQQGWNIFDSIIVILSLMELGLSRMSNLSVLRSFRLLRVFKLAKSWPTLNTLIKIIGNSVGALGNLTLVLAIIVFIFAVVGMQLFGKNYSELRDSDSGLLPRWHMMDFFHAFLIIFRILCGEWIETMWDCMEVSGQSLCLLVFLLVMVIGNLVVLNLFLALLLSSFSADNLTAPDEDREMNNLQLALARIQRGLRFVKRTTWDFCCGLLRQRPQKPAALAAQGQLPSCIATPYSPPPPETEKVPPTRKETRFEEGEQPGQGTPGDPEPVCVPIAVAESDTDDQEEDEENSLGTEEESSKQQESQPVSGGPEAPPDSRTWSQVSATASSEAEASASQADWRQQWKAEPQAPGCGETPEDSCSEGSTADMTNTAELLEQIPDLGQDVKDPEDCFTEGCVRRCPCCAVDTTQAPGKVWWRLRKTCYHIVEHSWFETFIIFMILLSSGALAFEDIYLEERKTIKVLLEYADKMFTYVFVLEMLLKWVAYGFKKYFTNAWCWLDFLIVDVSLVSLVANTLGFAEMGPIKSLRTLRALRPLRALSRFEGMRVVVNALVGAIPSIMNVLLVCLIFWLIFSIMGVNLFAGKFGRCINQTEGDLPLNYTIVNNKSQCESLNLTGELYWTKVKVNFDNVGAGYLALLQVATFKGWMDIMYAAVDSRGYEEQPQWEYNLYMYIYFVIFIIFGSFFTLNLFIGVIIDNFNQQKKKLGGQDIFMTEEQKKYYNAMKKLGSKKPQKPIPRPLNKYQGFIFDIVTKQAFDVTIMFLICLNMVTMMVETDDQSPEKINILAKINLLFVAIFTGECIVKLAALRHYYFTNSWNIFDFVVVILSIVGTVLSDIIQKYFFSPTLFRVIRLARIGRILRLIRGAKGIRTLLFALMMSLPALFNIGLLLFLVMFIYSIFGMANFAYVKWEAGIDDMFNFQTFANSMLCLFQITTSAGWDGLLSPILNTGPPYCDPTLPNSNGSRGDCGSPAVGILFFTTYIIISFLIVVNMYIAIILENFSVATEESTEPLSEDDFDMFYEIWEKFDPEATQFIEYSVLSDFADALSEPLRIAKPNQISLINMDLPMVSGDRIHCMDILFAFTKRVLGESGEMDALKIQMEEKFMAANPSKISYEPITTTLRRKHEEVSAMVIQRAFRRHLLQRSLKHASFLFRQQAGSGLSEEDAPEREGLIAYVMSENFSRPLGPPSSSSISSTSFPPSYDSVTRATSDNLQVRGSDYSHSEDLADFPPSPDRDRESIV

Some results are limits rather than exact numbers.
Note: assay procedure not described here.

5-hydroxytryptamine receptor 6, sequence (P50406 whole entry): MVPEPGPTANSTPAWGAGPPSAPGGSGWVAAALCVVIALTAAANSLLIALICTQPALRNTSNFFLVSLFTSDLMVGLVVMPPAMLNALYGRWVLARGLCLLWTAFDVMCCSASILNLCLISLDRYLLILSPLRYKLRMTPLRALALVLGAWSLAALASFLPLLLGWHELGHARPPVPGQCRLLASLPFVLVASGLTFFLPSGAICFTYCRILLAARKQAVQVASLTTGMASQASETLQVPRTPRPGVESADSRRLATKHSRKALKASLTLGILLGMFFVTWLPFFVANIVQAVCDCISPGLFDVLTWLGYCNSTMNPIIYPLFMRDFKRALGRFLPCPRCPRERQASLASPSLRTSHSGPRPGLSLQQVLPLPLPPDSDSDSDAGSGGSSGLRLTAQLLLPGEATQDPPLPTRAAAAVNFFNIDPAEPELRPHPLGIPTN
Cannabinoid receptor 1, sequence (P21554 whole entry): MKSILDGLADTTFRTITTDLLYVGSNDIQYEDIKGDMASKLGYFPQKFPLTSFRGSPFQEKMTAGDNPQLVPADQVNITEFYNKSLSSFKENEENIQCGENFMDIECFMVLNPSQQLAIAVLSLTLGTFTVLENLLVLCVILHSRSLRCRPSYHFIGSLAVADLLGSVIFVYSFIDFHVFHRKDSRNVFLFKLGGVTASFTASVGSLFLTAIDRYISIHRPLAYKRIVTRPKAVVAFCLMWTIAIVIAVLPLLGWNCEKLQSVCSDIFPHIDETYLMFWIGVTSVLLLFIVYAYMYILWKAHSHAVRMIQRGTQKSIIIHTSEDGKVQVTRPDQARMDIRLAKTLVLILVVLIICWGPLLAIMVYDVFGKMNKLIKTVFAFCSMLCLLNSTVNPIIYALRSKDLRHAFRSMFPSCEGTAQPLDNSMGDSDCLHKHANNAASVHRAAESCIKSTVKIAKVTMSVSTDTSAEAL

As for `CC(C)(Oc1ccc(Cl)cc1)C(=O)OCCOC(=O)c1cccnc1` [ETOFIBRATE], the AC50 on Androgen receptor was over 30 µM.
On to `Cc1ccc(O)c([C@H](CCN(C(C)C)C(C)C)c2ccccc2)c1` [TOLTERODINE], for which the concentration at half-maximal activity (AC50) was over 10 µM on D(1A) dopamine receptor, 8.84 µM in experiment [1], over 10 µM in experiment [2] and over 10 µM at Cannabinoid receptor 1.
With `C[C@]12C=CC(=O)C=C1CC[C@@H]1[C@@H]2[C@@H](O)C[C@@]2(C)[C@H]1CC[C@]2(O)C(=O)CO` [PREDNISOLONE], the AC50 (in experiment [3]; at Glucagon receptor; in [4]; in experiment [5]; in [6]) was over 30 µM each time.
`C[C@]12C=CC(=O)C=C1C(Cl)=C[C@@H]1[C@@H]2[C@@H](O)C[C@@]2(C)[C@H]1CC[C@]2(O)C(=O)CO` [CLOPREDNOL] displayed a concentration at half-maximal activity (AC50) at Androgen receptor of over 30 µM.
As to `N=C(N)NC(=O)c1nc(Cl)c(N)nc1N` [AMILORIDE], the AC50 in [3] is over 30 µM; at D(1A) dopamine receptor, over 10 µM; in experiment [7] it was over 100 µM; at Glucagon receptor, over 30 µM; in [4], over 30 µM; in experiment [5], over 30 µM. Moreover, the half-maximal activity concentration (AC50) in experiment [6] is over 30 µM; in experiment [2] it was over 10 µM; at Cannabinoid receptor 1, over 10 µM.
As for `C[C@@H]1CN(c2c(F)c(N)c3c(=O)c(C(=O)O)cn(C4CC4)c3c2F)C[C@H](C)N1` [SPARFLOXACIN], the AC50 in [8] is over 50 µM.
Compound `CC(C)Cc1ccc(C(C)C(=O)OCc2ccccn2)cc1` (centres undefined) [IBUPROFEN PICONOL] registered an AC50 in [7] of over 100 µM.
Take `COc1cccc2c1C(=O)c1c(O)c3c(c(O)c1C2=O)C[C@@](O)(C(=O)CO)C[C@@H]3O[C@H]1C[C@H](N)[C@H](O)[C@H](C)O1` [DOXORUBICIN]: the AC50 in experiment [8] is over 50 µM.
`CCC(=O)c1ccc2c(c1)N(CC(C)N(C)C)c1ccccc1S2` (centres undefined) [PROPIOMAZINE] gave an AC50 in [1] of 0.0233 µM.
